From PMC10582582 (Saudi Pharmaceutical Journal : SPJ, 2023)

Tested on: WI-38
Test: In vitro cytotoxicity against normal cell line WI-38
Type: cell-based
Conditions: Homo sapiens, WI-38, read-out: IC50 WI38

Question: How did the IC50 turn out when CN1CCC2(CC1)C/C(=N\N=C\c1ccc(O)cc1)c1ccccc1O2 [Compound 4d, 4-((E)-{(E)-[1′-Methylspiro(chroman-2,4′-piperidin)-4-ylidene]hydrazono}methyl)phenol] was run?
Answer: Its IC50 is 33.3 ± 2.3 µM.

Question: With CCN1CCC2(CC1)C/C(=N\N=C\c1ccc(N(C)C)cc1)c1ccccc1O2 [Compound 4c, 4-((E)-{(E)-[1′-Ethylspiro(chroman-2,4′-piperidin)-4-ylidene]hydrazono}methyl)-N,N-dimethylaniline] as the compound, how does the IC50 read?
Answer: Its IC50 is 55.3 ± 3.3 µM.

Question: CN1CCC2(CC1)C/C(=N\N=C\c1ccc(N(C)C)cc1)c1ccccc1O2 [Compound 4b, N,N-Dimethyl-4-((E)-{(E)-[1′-methylspiro(chroman-2,4′-piperidin)-4-ylidene]hydrazono}methyl)aniline] was tested. Which IC50 did it give?
Answer: Its IC50 is 60.4 ± 3.7 µM.

Question: How did the IC50 turn out when CN1CCC2(CC1)C/C(=N\N=C\c1ccc(Cl)cc1)c1ccccc1O2 [Compound 4a, (E)-4-[(E)-(4-Chlorobenzylidene)hydrazono]-1′-methylspiro(chroman-2,4′-piperidine)] was run?
Answer: Its IC50 is 75.7 ± 4.3 µM.

Question: With CN(C)C/C=C/C(=O)Nc1cc2c(Nc3ccc(F)c(Cl)c3)ncnc2cc1O[C@H]1CCOC1 [Afatinib, reference compound] as the compound, how does the IC50 read?
Answer: The IC50 was 49.5 ± 2.5 µM.
